The values that follow are results of earlier work, collected in patent publication US20130164384A1, “METHODS OF TREATING BOWEL DISEASES BY ADMINISTERING A BOWEL CLEANSER AND AN ANTIBIOTIC” (Salix Pharmaceuticals, Ltd., priority 2008, published 2013).

Structures are written as SMILES. Like-named read-outs stand apart in the source and are kept apart here.

The conditions of this data set: cited from earlier work.

As for `CC(=O)Oc1ccc(C(c2ccc(OC(C)=O)cc2)c2ccccn2)cc1` [Bisacodyl], the “Time to produce a bowel movement” value is, setting by setting: (enemas) “about 20 minutes”; (suppositories) “about an hour”.
